Each compound was assayed against T1, SMYD3 (Homo sapiens, UniProt Q9H7B4) (assay: SMYD3 biochemical assay (MTase-Glo, MAP3K2 peptide substrate)). Conditions: not given.
T1 sequence (Q9H7B4 1-428): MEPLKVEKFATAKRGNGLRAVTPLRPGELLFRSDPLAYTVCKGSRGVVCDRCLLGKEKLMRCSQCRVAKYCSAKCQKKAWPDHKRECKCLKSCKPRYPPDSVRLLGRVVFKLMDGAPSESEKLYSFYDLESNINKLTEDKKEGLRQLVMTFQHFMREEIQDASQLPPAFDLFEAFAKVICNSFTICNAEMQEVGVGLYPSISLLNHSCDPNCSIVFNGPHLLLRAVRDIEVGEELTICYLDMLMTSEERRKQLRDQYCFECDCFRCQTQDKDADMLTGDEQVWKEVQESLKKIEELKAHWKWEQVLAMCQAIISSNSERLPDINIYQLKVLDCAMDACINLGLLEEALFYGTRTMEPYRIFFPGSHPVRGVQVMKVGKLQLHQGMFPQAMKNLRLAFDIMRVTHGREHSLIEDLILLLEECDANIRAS
Method in brief: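 Methylation of MAP3K2 peptide (10 µM final) with SAM (1.0 µM final) by SMYD3, 30 min at room temperature. SAH formed was enzymatically converted to ATP and detected as luminescence with MTase-Glo reagents; IC50 by non-linear regression.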
For `NC(=O)C1CCN(CC(=O)Nc2ccc(Br)cc2)CC1` [BCI-121, reference compound], the “activity against SMYD3” value was “inactive”.

Same assay, conditions: Table 3; MTase assay, MAP3K2 peptide substrate; read-out: IC50
`CCCOC(=O)N1CCN(C(=O)c2ccc3c(Cl)cc(-c4cnn(C5CCCC5)c4)nc3c2)CC1` [B277, Propyl 4-(4-chloro-2-(1-cyclopentyl-1H-pyrazol-4-yl)quinoline-7-carbonyl)piperazine-1-carboxylate] gave an IC50 of 0.06 µM. Work on `CCCOC(=O)N1CCN(C(=O)c2ccc3c(Cl)cc(-c4cnn(C5CCCC5)c4)nc3c2)C[C@H]1C` [B278, Propyl (R)-4-(4-chloro-2-(1-cyclopentyl-1H-pyrazol-4-yl)quinoline-7-carbonyl)-2-methylpiperazine-1-carboxylate] yielded an IC50 of 0.022 µM. Compound `CCCOC(=O)N1CCN(C(=O)c2ccc3c(Cl)cc(-c4cnn(C5CCCC5)c4)nc3c2)C[C@@H]1C` [B279, Propyl (S)-4-(4-chloro-2-(1-cyclopentyl-1H-pyrazol-4-yl)quinoline-7-carbonyl)-2-methylpiperazine-1-carboxylate] has an IC50 of 0.02 µM. For `CCCOC(=O)N1CCN(C(=O)c2ccc3c(Cl)cc(-c4ccc(OC)c(CN)c4)nc3c2)C[C@@H]1C` [B280, Propyl (S)-4-(2-(3-(aminomethyl)-4-methoxyphenyl)-4-chloroquinoline-7-carbonyl)-2-methylpiperazine-1-carboxylate], the IC50 was 0.067 µM. Work on `CCCOC(=O)N1CCN(C(=O)c2ccc3c(Cl)cc(-c4ccc(C5(N)CC5)cc4)nc3c2)C[C@H]1C` [B281, Propyl (R)-4-(2-(4-(1-aminocyclopropyl)phenyl)-4-chloroquinoline-7-carbonyl)-2-methylpiperazine-1-carboxylate] yielded an IC50 of 0.012 µM. For `CCCOC(=O)N1CCN(C(=O)c2ccc3c(Cl)cc(-c4ccc(C(C)(C)CN)cc4)nc3c2)C[C@H]1C` [B282, Propyl (R)-4-(2-(4-(1-amino-2-methylpropan-2-yl)phenyl)-4-chloroquinoline-7-carbonyl)-2-methylpiperazine-1-carboxylate], the IC50 was 0.013 µM. Work on `CCCOC(=O)N1CCN(C(=O)c2ccc3c(Cl)cc(-c4ccc(C(C)N5CCCC5)cc4)nc3c2)C[C@H]1C` (stereo partly drawn) [B283, Propyl (2R)-4-(4-chloro-2-(4-(1-(pyrrolidin-1-yl)ethyl)phenyl)quinoline-7-carbonyl)-2-methylpiperazine-1-carboxylate] yielded an IC50 of 0.28 µM. `CCCOC(=O)N1CCN(C(=O)c2ccc3c(Cl)cc(-c4ccc(C(C)N(C)C)cc4)nc3c2)C[C@H]1C` (stereo partly drawn) [B284, Propyl (2R)-4-(4-chloro-2-(4-(1-(dimethylamino)ethyl)phenyl)quinoline-7-carbonyl)-2-methylpiperazine-1-carboxylate] showed an IC50 of 0.024 µM. Compound `CCCOC(=O)N1CCN(C(=O)c2ccc3c(Cl)cc(-c4ccc(C(C)(C)CN)cc4)nc3c2)CC1` [B285, Propyl 4-(2-(4-(1-amino-2-methylpropan-2-yl)phenyl)-4-chloroquinoline-7-carbonyl)piperazine-1-carboxylate] has an IC50 of 0.013 µM. In the case of `CCCOC(=O)N1CCN(C(=O)c2ccc3c(Cl)cc(-c4ccc(C(C)(C)CNC)cc4)nc3c2)CC1` [B286, Propyl 4-(4-chloro-2-(4-(2-methyl-1-(methylamino)propan-2-yl)phenyl)quinoline-7-carbonyl)piperazine-1-carboxylate], the IC50 is reported as 0.025 µM. `CCCOC(=O)N1CCN(C(=O)c2ccc3c(Cl)cc(-c4ccc(C(C)(C)CN(C)C)cc4)nc3c2)CC1` [B287, Propyl 4-(4-chloro-2-(4-(1-(dimethylamino)-2-methylpropan-2-yl)phenyl)quinoline-7-carbonyl)piperazine-1-carboxylate] showed an IC50 of 0.13 µM. In the case of `C=CCOC(=O)N1CCN(C(=O)c2ccc3c(Cl)c4c(nc3c2)CCC4)CC1` [C002, Allyl 4-(9-chloro-2,3-dihydro-1H-cyclopenta[b]quinoline-6-carbonyl)piperazine-1-carboxylate], the IC50 is reported as 10 µM. `CCCOC(=O)N1CCN(C(=O)c2ccc3c(Cl)c(C)c(C)nc3c2)CC1` [C003, Propyl 4-(4-chloro-2,3-dimethylquinoline-7-carbonyl)piperazine-1-carboxylate] was tested, and the IC50 was 3 µM.

— patent US20190071416A1, “COMPOUNDS FOR TREATMENT OF CANCER AND EPIGENETICS” (Agency For Science, Technology and Research, priority 2015, published 2019)
